# Legend:
# LC3B [1] = target: T1, LC3B (Homo sapiens, UniProt Q9GZQ8); experiment: OI-RD affinity with LC3B; assay type: binding
# T1 construct: His8 (N, cleaved yes); GST (from pGEX-6P1) (N, cleaved yes); made in house; host or cells: E. coli BL21(DE3)pLsyS
# Description: 01-RD images before and after incubation with the target protein was obtained following the method in (1).
# (§1) The difference images of the above steps (1), (2), (3) (the image after incubation minus the image before incubation) was analyzed respectively.
# (§2) Each compound was printed in triplicates on the microarray. 01-RD was used to measure the affinity reaction parameters of the compound with LC3B, full-length mHTT (flHTT-Q73) and full-length HTT-Q23 (flHTT-Q23).
# [2] = target: T2, mutant ATXN3 protein (ATXN3-Q74) (Homo sapiens, UniProt P54252, G306R/INS305QQQQQQQQQQQQQQQQQQQQQQQQQQQQQQQQQQQQQQQQQQQQQQQQQQQQQQQQQQQQQQQQ/V212M); experiment: Western-blot mutant ATXN3 level in SCA3 patient fibroblasts; assay type: cell-based; conditions: 100 nM (compound 4: 50 nM), 2 days
# T2 construct: endogenous in cells; host or cells: SCA3 patient fibroblasts (Q74)
# Description: (§3) Then the levels of mutant ATXN3 protein (ATXN3-Q74, SEQ ID NO: 2) and wild-type ATXN3 protein (ATXN3-Q27, SEQ ID NO: 7) were determined by Western-blots (FIG. 26). […] Therefore, the compound of the present invention can be used to treat SCA3.
# mHTT [3] = target: T3, mHTT (Homo sapiens, UniProt P42858, INS38QQQQQQQQQQQQQQQQQQQQQQQQQQ); experiment: HTRF mHTT level in HD patient iPSC-derived neurons; assay type: cell-based; conditions: iPSC-derived neurons (Q47)
# T3 construct: endogenous in cells; host or cells: HD patient iPSC-derived neurons (Q47)
# flHTT-Q73 = target: T4, flHTT-Q73 (Homo sapiens, UniProt P42858, INS38QQQQQQQQQQQQQQQQQQQQQQQQQQQQQQQQQQQQQQQQQQQQQQQQQQQQ); experiment: MST affinity with flHTT-Q73; assay type: binding
# T4 construct: LC3B, full-length mHTT (flHTT-Q73) and full-length HTT-Q23 (flHTT-Q23); protein A (N, cleaved yes); made in house; host or cells: human embryonic kidney E293 cells
# mHTT [4] = experiment: Western-blot mHTT level in primary cultured cortical neurons; assay type: cell-based, mouse; conditions: 2 days
# Description: (§4) Primary cultured cortical neurons: The brains of Hdh^Q140/Q7 and Hdh^Q7/Q7 newborn mice (P0) were dissected, digested, dissociated, and cultured.
# (§5) (1) The primary cultured Hdh^Q140/Q7 and Hdh^Q7/Q7 mouse cortical neuron cells were treated with the compound for 2 days.
# wtHTT = target: T5, wtHTT (Mus musculus, UniProt P42859); experiment: Western-blot wtHTT level in primary cultured cortical neurons; assay type: cell-based; conditions: Hdh^Q7/Q7 cortical neurons, 2 days
# T5 construct: endogenous in cells; host or cells: primary cortical neurons of newborn Hdh Q140/Q7 and Hdh Q7/Q7 mice
# Description: as §4, §5
# [5] = target: T6, full-length mHTT (flHTT-Q73) (Homo sapiens, UniProt P42858, INS38QQQQQQQQQQQQQQQQQQQQQQQQQQQQQQQQQQQQQQQQQQQQQQQQQQQQ); experiment: OI-RD affinity reaction parameters with flHTT-Q73; assay type: binding
# T6 construct: LC3B, full-length mHTT (flHTT-Q73) and full-length HTT-Q23 (flHTT-Q23); protein A (N, cleaved yes); made in house; host or cells: human embryonic kidney E293 cells
# From the text: as §2
# [6] = target: T7, wild-type ATXN3 protein (ATXN3-Q27) (Homo sapiens, UniProt P54252, G306R/INS305QQQQQQQQQQQQQQQQQ/V212M); experiment: Western-blot wild-type ATXN3 level in fibroblasts; assay type: cell-based; conditions: 100 nM (compound 4: 50 nM), 2 days
# T7 construct: endogenous in cells; host or cells: wild-type fibroblasts (Q27) and/or the normal allele in SCA3 patient fibroblasts
# Description: as §3
# HTTexon1-Q72-MBP = target: T8, HTTexon1-Q72-MBP (Homo sapiens, UniProt P42858, INS38QQQQQQQQQQQQQQQQQQQQQQQQQQQQQQQQQQQQQQQQQQQQQQQQQQQ); experiment: OI-RD affinity screening and affinity reaction parameters with HTTexon1-Q72; assay type: binding
# T8 construct: made in house; host or cells: mammalian expression vector pTT5SH8Q2
# Description: Each compound was printed in duplicate on the microarray. The compound not fixed on the surface of the chip was washed away. The chip was sealed and cleaned. 01-RD microscope was applied to scan the images. […] The chips are cleaned and scanned.
# as §1
# (§6) Each compound was printed in triplicates on the microarray. 01-RD was used to measure the affinity reaction parameters of compounds with HTTexon1-Q72 and HTTexon1-Q25.
# LC3B [7] = target: T1, LC3B; experiment: MST affinity with LC3B; assay type: binding
# [8] = target: T9, mutant ATXN1 protein (His-ATXN1-Q92) (Homo sapiens, UniProt P54253, INS208QQQQQQQQQQQQQQQQQQQQQQQQQQQQQQQQQQQQQQQQQQQQQQQQQQQQQQQQQQQQQQQQQQQQQQQQQQQQQQQQ); experiment: HTRF mutant ATXN1 level in His-ATXN1-Q92-expressing cells; assay type: cell-based; conditions: 100 nM, 2 days, anti-His-Tb/MW1-D2
# T9 construct: expressed in transfected cells; host or cells: HEK293T cells (ATCC, CRL-3216)
# HTTexon1-Q25-MBP = target: T10, HTTexon1-Q25-MBP (Homo sapiens, UniProt P42858, DUP35-38); experiment: OI-RD affinity with HTTexon1-Q25; assay type: binding
# T10 construct: made in house; host or cells: mammalian expression vector pTT5SH8Q2
# Description: OI-RD images before and after incubation with the target protein was obtained following the method in (1).
# as §1, §6
# His-ATXN1-Q92 = target: T11, His-ATXN1-Q92 (Homo sapiens, UniProt P54253, INS208QQQQQQQQQQQQQQQQQQQQQQQQQQQQQQQQQQQQQQQQQQQQQQQQQQQQQQQQQQQQQQQQQQQQQQQQQQQQQQQQ); experiment: OI-RD affinity screening with His-ATXN1-Q92; assay type: binding; conditions: OI-RD difference images
# T11 construct: made in house; host or cells: HEK293T cells (ATCC, CRL-3216)
# Description: (1) PolyQ-ATXN1 cDNA (where polyQ is Q92) was synthesized de novo and subcloned into pcDNA vector. It transfected into HEK293T cells (ATCC, CRL-3216) to obtain cells expressing His-ATXN1-Q92 (SEQ ID NO: 3 with a His tag at the N-terminal).
# (2) The His-ATXN1-Q92 expressed in (1) was purified to obtain ATXN1 with abnormally expanded polyQ.
# To identify compound(s) that can bind to ATXN1 with abnormally expanded polyQ, screening was conducted using a method similar to step (1) of 1.1, except for that the target protein HTTexon1-Q72-MBP in step (1) of 1.1 was replaced with His-ATXN1-Q92.
# MBP-ATXN3-Q28 [9] = target: T12, MBP-ATXN3-Q28 (Homo sapiens, UniProt P54252, INS305QQQQQQQQQQQQQQQQQQ); experiment: MST affinity with MBP-ATXN3-Q28; assay type: binding
# T12 construct: His8 with TEV protease cleavage site; made in house; host or cells: Escherichia coli Rosetta(DE3)pLsyS
# Description: Protein concentration was 500 nM.
# MBP-ATXN3-Q28 [10] = target: T12, MBP-ATXN3-Q28; experiment: OI-RD affinity screening with MBP-ATXN3-Q28; assay type: binding; conditions: OI-RD difference images
# Description: (§7) Screening was conducted using a method similar to 1.1, except for that the target protein HTTexon1-Q72-MBP in step (1) of 1.1 was replaced with MBP-ATXN3-Q68 and the target protein HTTexon1-Q25-MBP in step (2) of 1.1 was replaced with MBP-ATXN3-Q28, to obtain compounds that can selectively bind to ATXN3 with abnormally expanded polyQ (MBP-ATXN3-Q68).
# Q25-GFP [11] = experiment: MST affinity with Q25-GFP
# Description: (§9) The affinity of the compound with full-length HTT and LC3B was verified with micro thermophoresis (MST) using Monolith NT.115 instrument from NanoTemper Technologies. The reaction buffer was 20 mM HEPES, pH 7.4, 150 mM NaCl.
# [12] = tested on: proteins with expanded polyglutamine (polyQ-GFP); experiment: OI-RD affinity screening with polyQ-GFP proteins; assay type: binding; conditions: OI-RD difference images
# Description: (§8) To identify compound(s) that can selectively bind to proteins containing expanded polyglutamine, screening was conducted using a method similar to 1.1, except for that the target protein HTTexon1-Q72-MBP in step (1) of 1.1 was replaced with the polyQ-GFP protein prepared in 10.1, and the target protein HTTexon1-Q25-MBP in step (2) of 1.1 was replaced with GFP.
# MBP-ATXN3-Q68 [13] = target: T13, MBP-ATXN3-Q68 (Homo sapiens, UniProt P54252, INS305QQQQQQQQQQQQQQQQQQQQQQQQQQQQQQQQQQQQQQQQQQQQQQQQQQQQQQQQQQ); experiment: OI-RD affinity screening with MBP-ATXN3-Q68; assay type: binding; design: His8 with TEV protease cleavage site; made in house; host or cells: Escherichia coli Rosetta(DE3)pLsyS; conditions: OI-RD difference images
# Description: as §7
# [14] = tested on: polyQ-GFP (Q72-GFP, Q25-GFP); experiment: polyQ-GFP level in HEK293T cells by Incucyte fluorescence counting; assay type: cell-based; conditions: Q72-GFP vs Q25-GFP expressing HEK293T cells, 100 nM compound 1, 100 nM compound 3 or 50 nM compound 4, 2 days
# From the text: (1) PolyQ-GFP cDNA sequence (expressing Met-polyQ-GFP, wherein polyQ was Q72 or Q25) was synthesized de novo and subcloned into pcDNA vector. It was transfected into HEK293T cells (ATCC, CRL-3216) through forward transfection to obtain Q72-GFP expressing cells and Q25-GFP expressing cells, respectively. And the same method was used to obtain cells expressing Q53-GFP, cells expressing Q46-GFP, and cells expressing Q38-GFP.
# The Q72-GFP expressing cells and Q25-GFP expressing cells obtained in step (1) of 10.1 were used. […] Then the level of polyQ-GFP was measured by Incucyte fluorescence counting (FIG. 25).
# GFP = experiment: OI-RD affinity screening with GFP; assay type: binding; conditions: OI-RD difference images
# Description: as §8
# MBP-ATXN3-Q68 [15] = target: T13, MBP-ATXN3-Q68; experiment: MST affinity with MBP-ATXN3-Q68
# Description: as §9
# Q25-GFP [16] = experiment: OI-RD affinity screening with Q25-GFP; assay type: binding; conditions: OI-RD difference images
# From the text: (1) PolyQ-GFP cDNA sequence (expressing Met-polyQ-GFP, wherein polyQ was Q72 or Q25) was synthesized de novo and subcloned into pcDNA vector. […] And the same method was used to obtain cells expressing Q53-GFP, cells expressing Q46-GFP, and cells expressing Q38-GFP.
# mHTT [17] = experiment: Intracerebroventricular injection, mHTT and wtHTT in cortices of HD mice; assay type: in vivo, mouse; conditions: mouse, in vivo
# Description: Experimental animals: Hdh^Q140/Q7 mice (3 months old), 4 in each group.
# Each test includes three repetitions for each sample, and the mean values was calculated (FIG. 16).
# T8 sequence (P42858 with tags, fused parts or gaps, stated change not applied): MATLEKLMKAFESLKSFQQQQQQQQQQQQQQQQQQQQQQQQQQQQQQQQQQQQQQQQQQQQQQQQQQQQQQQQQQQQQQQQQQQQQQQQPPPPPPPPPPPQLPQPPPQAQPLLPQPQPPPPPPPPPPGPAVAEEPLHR
# T6 sequence (P42858 with tags, fused parts or gaps with the stated changes): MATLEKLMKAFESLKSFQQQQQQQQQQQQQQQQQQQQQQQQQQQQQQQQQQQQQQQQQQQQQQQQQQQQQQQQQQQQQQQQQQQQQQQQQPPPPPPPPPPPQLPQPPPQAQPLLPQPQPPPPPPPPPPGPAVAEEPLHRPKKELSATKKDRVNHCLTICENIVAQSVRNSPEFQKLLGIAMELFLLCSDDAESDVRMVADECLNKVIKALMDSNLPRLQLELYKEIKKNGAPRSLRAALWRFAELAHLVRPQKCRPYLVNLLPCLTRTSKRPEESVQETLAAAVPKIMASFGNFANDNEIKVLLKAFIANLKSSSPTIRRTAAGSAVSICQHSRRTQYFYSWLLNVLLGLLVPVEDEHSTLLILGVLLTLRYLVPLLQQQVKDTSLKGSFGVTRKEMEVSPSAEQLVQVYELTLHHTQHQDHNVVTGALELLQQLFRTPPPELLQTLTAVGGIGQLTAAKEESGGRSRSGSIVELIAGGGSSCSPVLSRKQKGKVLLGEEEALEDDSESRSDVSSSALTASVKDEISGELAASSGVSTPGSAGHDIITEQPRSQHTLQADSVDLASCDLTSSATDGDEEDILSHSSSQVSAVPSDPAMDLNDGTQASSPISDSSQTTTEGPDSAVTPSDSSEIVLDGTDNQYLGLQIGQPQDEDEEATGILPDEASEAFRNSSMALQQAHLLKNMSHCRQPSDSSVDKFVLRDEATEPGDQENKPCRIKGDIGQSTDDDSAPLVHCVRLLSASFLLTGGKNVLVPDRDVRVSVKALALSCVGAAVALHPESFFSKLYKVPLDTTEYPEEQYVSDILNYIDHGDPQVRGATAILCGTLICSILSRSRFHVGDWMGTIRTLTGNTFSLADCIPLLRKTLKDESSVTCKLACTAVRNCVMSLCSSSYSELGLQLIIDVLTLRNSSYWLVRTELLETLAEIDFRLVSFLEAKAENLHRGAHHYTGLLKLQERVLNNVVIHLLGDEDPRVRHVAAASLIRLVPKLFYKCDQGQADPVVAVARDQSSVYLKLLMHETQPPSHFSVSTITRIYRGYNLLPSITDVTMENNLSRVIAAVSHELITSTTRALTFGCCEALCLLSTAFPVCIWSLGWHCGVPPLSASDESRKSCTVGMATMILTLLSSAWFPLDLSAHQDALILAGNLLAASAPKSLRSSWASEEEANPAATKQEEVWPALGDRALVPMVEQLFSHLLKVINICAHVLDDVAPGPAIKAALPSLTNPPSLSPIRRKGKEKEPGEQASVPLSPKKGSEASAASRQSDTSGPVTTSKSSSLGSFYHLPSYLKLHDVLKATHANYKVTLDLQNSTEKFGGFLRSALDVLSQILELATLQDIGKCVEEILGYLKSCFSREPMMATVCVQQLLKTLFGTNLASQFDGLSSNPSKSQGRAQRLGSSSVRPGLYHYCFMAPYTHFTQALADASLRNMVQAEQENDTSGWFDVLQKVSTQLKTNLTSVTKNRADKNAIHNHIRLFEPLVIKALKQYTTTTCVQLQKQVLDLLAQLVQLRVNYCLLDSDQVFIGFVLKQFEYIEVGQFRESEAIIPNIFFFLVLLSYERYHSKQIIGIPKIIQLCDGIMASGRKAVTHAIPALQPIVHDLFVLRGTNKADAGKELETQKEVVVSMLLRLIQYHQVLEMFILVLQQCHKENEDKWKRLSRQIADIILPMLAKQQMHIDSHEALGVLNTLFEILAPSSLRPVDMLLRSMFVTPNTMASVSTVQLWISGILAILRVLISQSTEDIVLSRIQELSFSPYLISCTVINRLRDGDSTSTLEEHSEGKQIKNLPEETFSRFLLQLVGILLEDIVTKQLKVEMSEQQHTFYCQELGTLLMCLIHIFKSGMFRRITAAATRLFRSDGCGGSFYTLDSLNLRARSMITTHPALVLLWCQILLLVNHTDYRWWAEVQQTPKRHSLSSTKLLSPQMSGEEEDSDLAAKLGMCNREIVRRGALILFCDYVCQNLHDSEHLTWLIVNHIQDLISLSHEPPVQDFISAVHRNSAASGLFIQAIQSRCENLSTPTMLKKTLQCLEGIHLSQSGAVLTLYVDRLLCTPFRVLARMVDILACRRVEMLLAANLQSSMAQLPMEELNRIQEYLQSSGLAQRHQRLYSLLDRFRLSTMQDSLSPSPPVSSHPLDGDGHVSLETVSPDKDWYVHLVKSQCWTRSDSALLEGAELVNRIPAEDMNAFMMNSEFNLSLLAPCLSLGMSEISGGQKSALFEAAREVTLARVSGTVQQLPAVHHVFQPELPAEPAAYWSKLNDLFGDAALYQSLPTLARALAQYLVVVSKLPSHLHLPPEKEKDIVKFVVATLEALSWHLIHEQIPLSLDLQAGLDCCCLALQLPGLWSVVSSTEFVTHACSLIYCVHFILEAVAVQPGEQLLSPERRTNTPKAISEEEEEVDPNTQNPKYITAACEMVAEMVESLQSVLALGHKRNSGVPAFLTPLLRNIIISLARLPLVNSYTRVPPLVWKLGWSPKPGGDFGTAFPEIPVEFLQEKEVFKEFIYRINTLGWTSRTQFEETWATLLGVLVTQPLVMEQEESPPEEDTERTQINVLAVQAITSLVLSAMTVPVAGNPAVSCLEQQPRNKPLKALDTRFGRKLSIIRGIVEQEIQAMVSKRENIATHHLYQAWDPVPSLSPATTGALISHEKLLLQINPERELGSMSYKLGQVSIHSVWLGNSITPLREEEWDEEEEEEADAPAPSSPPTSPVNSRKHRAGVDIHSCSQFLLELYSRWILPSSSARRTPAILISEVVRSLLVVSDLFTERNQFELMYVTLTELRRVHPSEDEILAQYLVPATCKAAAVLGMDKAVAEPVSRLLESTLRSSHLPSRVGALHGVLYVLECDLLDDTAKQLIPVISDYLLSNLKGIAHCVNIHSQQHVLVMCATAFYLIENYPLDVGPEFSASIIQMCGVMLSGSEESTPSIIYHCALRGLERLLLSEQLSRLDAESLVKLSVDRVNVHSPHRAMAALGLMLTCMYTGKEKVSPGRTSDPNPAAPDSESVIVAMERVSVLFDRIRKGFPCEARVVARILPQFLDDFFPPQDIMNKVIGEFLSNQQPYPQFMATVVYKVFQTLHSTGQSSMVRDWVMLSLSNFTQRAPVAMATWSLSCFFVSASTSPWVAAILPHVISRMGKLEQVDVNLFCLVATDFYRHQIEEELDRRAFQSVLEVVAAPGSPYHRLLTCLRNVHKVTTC
# T9 sequence (P54253 with tags, fused parts or gaps with the stated changes): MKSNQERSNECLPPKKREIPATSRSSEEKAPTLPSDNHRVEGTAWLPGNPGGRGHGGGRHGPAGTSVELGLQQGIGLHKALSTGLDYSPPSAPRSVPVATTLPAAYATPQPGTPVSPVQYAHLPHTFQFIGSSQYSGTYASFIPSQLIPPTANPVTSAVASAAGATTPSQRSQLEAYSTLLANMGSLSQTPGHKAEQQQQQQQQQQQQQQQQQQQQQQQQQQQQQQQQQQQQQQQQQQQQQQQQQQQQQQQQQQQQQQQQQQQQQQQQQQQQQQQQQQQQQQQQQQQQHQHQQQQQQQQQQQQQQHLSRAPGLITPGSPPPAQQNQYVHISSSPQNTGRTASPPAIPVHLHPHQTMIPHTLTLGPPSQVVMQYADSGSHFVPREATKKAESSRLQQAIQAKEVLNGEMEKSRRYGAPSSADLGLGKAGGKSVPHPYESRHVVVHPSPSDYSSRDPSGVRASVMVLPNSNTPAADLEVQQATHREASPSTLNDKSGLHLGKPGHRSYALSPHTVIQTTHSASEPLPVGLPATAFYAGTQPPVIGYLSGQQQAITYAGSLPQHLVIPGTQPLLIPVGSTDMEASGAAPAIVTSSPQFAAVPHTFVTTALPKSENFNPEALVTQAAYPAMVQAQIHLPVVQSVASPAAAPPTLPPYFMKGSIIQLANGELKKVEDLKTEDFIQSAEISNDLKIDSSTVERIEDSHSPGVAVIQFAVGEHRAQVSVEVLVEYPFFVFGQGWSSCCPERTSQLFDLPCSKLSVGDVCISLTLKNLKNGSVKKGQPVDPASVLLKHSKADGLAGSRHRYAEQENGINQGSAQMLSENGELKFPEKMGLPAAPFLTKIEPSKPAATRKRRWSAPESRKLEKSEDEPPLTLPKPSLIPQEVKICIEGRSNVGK
# T11 sequence (P54253 with tags, fused parts or gaps with the stated changes): as above
# T13 sequence (P54252 with tags, fused parts or gaps isoform P54252-4 with the stated changes): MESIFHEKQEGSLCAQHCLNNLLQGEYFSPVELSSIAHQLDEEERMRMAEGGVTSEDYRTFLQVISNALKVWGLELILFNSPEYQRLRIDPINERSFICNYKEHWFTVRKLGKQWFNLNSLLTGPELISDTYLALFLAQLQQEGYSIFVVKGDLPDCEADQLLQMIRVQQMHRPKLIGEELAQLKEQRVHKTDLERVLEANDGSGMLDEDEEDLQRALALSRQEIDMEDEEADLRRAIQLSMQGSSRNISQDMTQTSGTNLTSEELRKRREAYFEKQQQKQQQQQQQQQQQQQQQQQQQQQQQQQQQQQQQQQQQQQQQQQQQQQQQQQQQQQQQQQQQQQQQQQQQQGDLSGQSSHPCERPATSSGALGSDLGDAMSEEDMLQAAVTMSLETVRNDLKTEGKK
# T2 sequence (P54252 with tags, fused parts or gaps isoform P54252-1 with the stated changes): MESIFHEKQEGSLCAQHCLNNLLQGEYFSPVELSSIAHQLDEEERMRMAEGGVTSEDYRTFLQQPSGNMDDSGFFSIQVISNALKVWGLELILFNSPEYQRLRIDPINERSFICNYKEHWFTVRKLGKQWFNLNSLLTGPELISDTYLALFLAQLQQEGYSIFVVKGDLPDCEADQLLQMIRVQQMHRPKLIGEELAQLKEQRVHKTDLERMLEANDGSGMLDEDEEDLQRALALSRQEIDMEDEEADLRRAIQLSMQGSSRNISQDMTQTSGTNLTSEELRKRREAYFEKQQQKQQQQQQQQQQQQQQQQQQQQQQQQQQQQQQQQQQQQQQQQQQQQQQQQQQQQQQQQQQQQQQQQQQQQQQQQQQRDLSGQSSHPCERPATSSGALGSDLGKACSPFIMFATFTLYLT
compound,measurement,setting,value
"Cc1ccc(C(=O)N(CCCN)[C@@H](c2nc3cc(Cl)ccc3c(=O)n2Cc2ccccc2)C(C)C)cc1 [compound 2, ispinesib]",Kd,LC3B [1],238 nM
same,binding to LC3B,LC3B [1]; OI-RD difference images,can bind
same,Koff,"LC3B [1]; OI-RD, LC3B",9.77e-05 s⁻¹
same,Kon,"LC3B [1]; OI-RD, LC3B",2.46e-05 min/nM
same,mutant ATXN3 protein level,[2],A decrease in mutant ATXN3 protein level was observed
same,mHTT levels,mHTT [3]; 2B7/MW1,Decreased mHTT levels were observed
same,mHTT levels,mHTT [3]; presence of the autophagy inhibitor NH4Cl,this effect was not observed
same,Kd,flHTT-Q73,130 nM
same,concentration range in which the effect of selectively reducing mHTT levels was observed,mHTT [4],30 to 100 nM
same,preferred concentration for selectively reducing mHTT levels,mHTT [4],100 nM
same,wtHTT levels,wtHTT,did not reduce wtHTT levels
same,Kd,[5],322 nM
same,Koff,"[5]; OI-RD, flHTT-Q73",0.000345 s⁻¹
same,Kon,"[5]; OI-RD, flHTT-Q73",6.43e-05 min/nM
same,wild-type ATXN3 protein level,[6],no decrease in wild-type ATXN3 protein level was observed
same,Kd,HTTexon1-Q72-MBP,29.2 nM
same,binding to HTTexon1-Q72,HTTexon1-Q72-MBP; OI-RD difference images,can bind
same,Koff,"HTTexon1-Q72-MBP; OI-RD, HTTexon1-Q72",0.000104 s⁻¹
same,Kon,"HTTexon1-Q72-MBP; OI-RD, HTTexon1-Q72",0.000213 min/nM
same,Kd,LC3B [7],3100 nM
same,level of mutant ATXN1 protein (His-ATXN1-Q92),[8],Decreased levels of mutant ATXN1 were observed
same,binding to HTTexon1-Q25,HTTexon1-Q25-MBP,do not bind
same,binding to His-ATXN1-Q92,His-ATXN1-Q92,can bind
O=C1Nc2ccc(Br)cc2/C1=C/c1cc(O)c(O)c(Br)c1 [compound 3],binding affinity with normal ATXN3 protein (MBP-ATXN3-Q28),MBP-ATXN3-Q28 [9],no binding affinity
same,mutant ATXN3 protein level,[2],A decrease in mutant ATXN3 protein level was observed
same,binding to MBP-ATXN3-Q28,MBP-ATXN3-Q28 [10],did not bind
same,binding affinity to Q25-GFP,Q25-GFP [11],no binding affinity
same,binding affinity to proteins with 38 or more glutamine repeats,[12],showed certain binding affinity
same,binding to MBP-ATXN3-Q68,MBP-ATXN3-Q68 [13],binded
same,wild-type ATXN3 protein level,[6],no decrease in wild-type ATXN3 protein level was observed
same,level of proteins containing expanded polyglutamine in cells (polyQ-GFP),[14],can selectively reduce the level
same,binding to GFP,GFP,did not bind
same,level of mutant ATXN1 protein (His-ATXN1-Q92),[8],Decreased levels of mutant ATXN1 were observed
same,Kd,MBP-ATXN3-Q68 [15],1020 nM
same,binding to Q25-GFP,Q25-GFP [16],did not bind
same,binding to His-ATXN1-Q92,His-ATXN1-Q92,can bind
same,mHTT level in cortices,mHTT [17],significantly reduced mHTT level
